Legend:
[1] = system: tobacco PBD6 plants; experiment: Measurement of the glyphosate tolerance of transformed tobacco plants sown in the open; format: in vivo; settings: untransformed tobacco PBD 6 controls, 0.8 kg/ha, 5-leaf stage, 30 days after the treatment
Method: The vector is introduced into the nononcogenic agrobacterium strain EHA 101 (Hood et al., 1987) carrying the cosmid pTVK 291 (Komari et al., 1986). The transformation method is based on the procedure of Horsh et al. (1985).
The regeneration of the tobacco PBD6 (source SEITA France) using foliar explants is carried out on a Murashige and Skoog (MS) basic medium containing 30 g/l of sucrose and […] of kanamycin. The foliar explants are removed from greenhouse- or in vitro-grown plants and transformed according to the foliar disc method (Science 1985, Vol. 227, p. 1229-1231) in three successive stages: the first comprises the induction of shoots on an MS medium supplemented with 30 g of sucrose containing 0.05 mg of naphthylacetic acid (ANA) and 2 mg/l of benzylaminopurine (BAP), for 15 days. The shoots formed during this stage are then developed by culturing on an MS medium supplemented with 30 g/l of sucrose, but not containing hormone, for 10 days. […]
The best plants obtained from the regeneration of transformed tobaccos are selected under a greenhouse after treating the plants, at the 5-leaf stage, […] […] Molecular hybridization analysis enabled the plants having integrated only one copy of the T-DNA to be determined. […]

[2] = system: Spring colzas, Westar cultivar; experiment: Greenhouse glyphosate treatment of transformed spring colza; format: in vivo; settings: 400 g a.s/ha
From the text: Spring colzas, Westar cultivar, resistant to glyphosate, were obtained using the method of BOULTER et al., 1990 (Plant Science, 70: 91-99), with the constructs pRPA-BL 488 (dH-At-PTO-aroA-nos), pRPA-BL 502 (CaMV/H-At-PTO- aroA-nos).

Which “effect of glyphosate on control (untransformed) plants (phytotoxicity)” value [1] does the source give for `O=C(O)CNCP(=O)(O)O` [glyphosate, N-(phosphonomethyl)glycine] here?
The value was “completely destroyed”.

And the “effect of glyphosate treatment on nontransgenic plants” value [2]?
The value was “destroys nontransgenic plants”.

Reference: patent US6362396B1, “Chimeric gene for the transformation of plants” (Aventis Crop Science, priority 1992, dated 2002)
